What all share (type): cell-based, human
The test system of test [1] is MCF-7 cell line. As to the kind of experiment: MTT cytotoxicity assay, MCF-7.
In test [2] the test system is MCF-7 cell line. Briefly: Cell cycle analysis by flow cytometry. The conditions noted are these: 72 h, untreated 15.93%. In general terms: In flow cytometry, cells or beads pass a laser one at a time.
Test [3] relates to MCF-7 cell line. Briefly: Annexin V-PI flow cytometry apoptosis assay. The note with it: 72 h, untreated 4.5%.

Take `NNc1nc2ccc(Br)cc2c(=O)n1-c1ccc(F)cc1` [7j, 6-bromo-3-(4-fluorophenyl)-2-hydrazineylquinazolin-4(3H)-one]: the “improvement of activity compared to Erlotinib” value in the test with MCF-7 cell line [1] was determined as 6 folds.
With `NNc1nc2ccc(Br)cc2c(=O)n1-c1ccc(Cl)cc1` [7k, 6-bromo-3-(4-chlorophenyl)-2-hydrazineylquinazolin-4(3H)-one], the “accumulation of the cells in S phase” value in the test on MCF-7 cell line [2] (5 µM) was determined as 16.66%; with MCF-7 cell line [2] (10 µM) it was 25.65%; with MCF-7 cell line [2] (20 µM), 30.61%. Besides, the “improvement of activity compared to Erlotinib” value in the test on MCF-7 cell line [1] is listed as 6 folds. Also, the “percentage of apoptotic cells” value was determined as 17.46% with MCF-7 cell line [3] (5 µM), 41.2% in the test with MCF-7 cell line [3] (10 µM) and 56% with MCF-7 cell line [3] (20 µM).

The record behind these values is paper PMC12070605 (BMC Chemistry, 2025).
